Results as given in patent publication US9376391B2, “Difluoromethyl-nicotinic-tetrahydronaphthyl carboxamides as fungicides” (BAYER CROPSCIENCE AKTIENGESELLSCHAFT, priority 2012, dated 2016).

Assays:
Alternaria brassicae = test: In vivo preventive test on Alternaria brassicae (leaf spot on radish); settings: dose 500 ppm, spray, graded 6 days after contamination vs control plants
Experimental: In Vivo Preventive Test on Alternaria brassicae (Leaf Spot on Radish)
(§1) The active ingredients tested are prepared by homogenization in a mixture of acetone/tween/DMSO, and then diluted with water to obtain the desired active material concentration.
Radish plants (“Pernod Clair” variety), sown in starter cups on a 50/50 peat soil-pozzolana substrate and grown at 17° C., are treated at the cotyledon stage by spraying with the active ingredient prepared as described above. Plants, used as controls, are treated with the mixture of acetone/tween/DMSO/water not containing the active material.
After 24 hours, the plants are contaminated by spraying the cotyledons with an aqueous suspension of Alternaria brassicae spores (50 000 spores per ml). The spores are collected from a 15-day-old culture. The contaminated radish plants are incubated at 20° C. and at 100% relative humidity.
Grading (% of efficacy) is carried out 6 days after the contamination, in comparison with the control plants.

Puccinia recondita = test: In vivo preventive test on Puccinia recondita (brown rust on wheat); settings: wheat, spray, graded 12 days after contamination vs control plants
Experimental: In Vivo Preventive Test on Puccinia recondita (Brown Rust on Wheat) […] Wheat plants (“Scipion” variety), sown in starter cups on a 50/50 peat soil-pozzolana substrate and grown at 22° C., are treated at the 1-leaf stage (10 cm height) by spraying with the active ingredient prepared as described above. Plants, used as controls, are treated with the mixture of acetone/tween/DMSO/water not containing the active material. After 24 hours, the plants are contaminated by spraying the leaves with an aqueous suspension of Puccinia recondita spores (100 000 spores per ml). The spores are collected from an infected plant and are suspended in water containing 2.5 ml/1 of Tween 80 at 10%. The contaminated wheat plants are incubated for 24 hours at 20° C. and at 100% relative humidity, and then for 10 days at 20° C. and at 70-80% relative humidity. Grading (% of efficacy) is carried out 12 days after the contamination, in comparison with the control plants.

Uromyces appendiculatus = test: In vivo preventive test on Uromyces appendiculatus (bean rust); settings: preventive spray, bean plants, grading 11 days after contamination
Experimental: In Vivo Preventive Test on Uromyces appendiculatus (Bean Rust) […] Bean plants (“Saxa” variety), sown in starter cups on a 50/50 peat soil-pozzolana substrate and grown at 24° C., are treated at the 2-leaf stage (9 cm height) by spraying with the active ingredient prepared as described above. Plants, used as controls, are treated with the mixture of acetone/tween/DMSO/water not containing the active material. After 24 hours, the plants are contaminated by spraying the leaves with an aqueous suspension of Uromyces appendiculatus spores (150 000 spores per ml). The spores are collected from infected plants and are suspended in water containing 2.5 ml/1 of Tween 80 at 10%. The contaminated bean plants are incubated for 24 hours at 20° C. and at 100% relative humidity, and then for 10 days at 20° C. and at 70-80% relative humidity. Grading (% of efficacy) is carried out 11 days after the contamination, in comparison with the control plants.

[1] = log P by HPLC on reversed phase columns (EEC directive 79/831 Annex V.A8); format: physicochemical; settings: Table 1, formula (I), HPLC/LC-MS at pH 2.7, 0.1% formic acid in water / acetonitrile, gradient 10% to 95%; for chromatographic logP: reversed phase HPLC columns
Septoria tritici = test: In vivo preventive test on Septoria tritici (leaf spot on wheat); settings: 500 ppm, preventive spray, wheat plants, grading 24 days after contamination
Experimental: In Vivo Preventive Test on Septoria tritici (Leaf Spot on Wheat)
as §1
Wheat plants (“Scipion” variety), sown in starter cups on a 50/50 peat soil-pozzolana substrate and grown at 22° C., are treated at the 1-leaf stage (10 cm height) by spraying with the active ingredient prepared as described above. Plants, used as controls, are treated with the mixture of acetone/tween/DMSO/water not containing the active material.
After 24 hours, the plants are contaminated by spraying the leaves with an aqueous suspension of cryopreserved Septoria tritici spores (500 000 spores per ml). The contaminated wheat plants are incubated for 72 hours at 18° C. and at 100% relative humidity, and then for 21 days at 90% relative humidity.
Grading (% of efficacy) is carried out 24 days after the contamination, in comparison with the control plants.

Sphaerotheca fuliginea = test: In vivo preventive test on Sphaerotheca fuliginea (powdery mildew on cucurbits); settings: preventive spray, gherkin plants, grading 12 days after contamination
Experimental: In Vivo Preventive Test on Sphaerotheca fuliginea (Powdery Mildew on Cucurbits)
The active ingredients tested are prepared by homogenization in a mixture of acetone/tween/DMSO and then diluted with water to obtain the desired active material concentration.
Gherkin plants (“Vert petit de Paris” variety), sown in starter cups on a 50/50 peat soil-pozzolana substrate and grown at 24° C., are treated at the Z11 cotyledon stage by spraying with the active ingredient prepared as described above. Plants, used as controls, are treated with the mixture of acetone/tween/DMSO/water not containing the active material.
After 24 hours, the plants are contaminated by spraying the cotyledons with an aqueous suspension of Sphaerotheca fuliginea spores (100 000 spores per ml). The spores are collected from infected plants. The contaminated gherkin plants are incubated at about 20° C. and at 70-80% relative humidity.
Grading (% of efficacy) is carried out 12 days after the contamination, in comparison with the control plants.

Row | logP^[a] [1] | SMILES | Eff. % (Puccinia recondita; dose 500 ppm) | Eff. % (Uromyces appendiculatus; 500 ppm) | other results
1 |  | CCC1Cc2c(NC(=O)c3cc(C)cnc3C(F)F)cccc2C1(C)C (centres unmarked) [Example 38, 2-(difluoromethyl)-N-(2-ethyl-1,1-dimethyl-2,3-dihydro-1H-inden-4-yl)-5-methylnicotinamide] | 94% | 100% | Eff. % (Alternaria brassicae): 80%; chromatographic logP [1]: 4.06
2 | 2.37^[a] | Cc1cnc(C(F)F)c(C(=O)Nc2cccc3c2C(C)OC3(C)C)c1 (centres unmarked) [Example 22] | 83% |  | 
3 |  | CCC1Cc2c(NC(=S)c3cc(C)cnc3C(F)F)cccc2C1(C)C (centres unmarked) [Example 70, 2-(difluoromethyl)-N-(2-ethyl-1,1-dimethyl-2,3-dihydro-1H-inden-4-yl)-5-methylpyridine-3-carbothioamide] |  |  | Eff. % (Puccinia recondita; dose 100 ppm): 98%; Eff. % (Uromyces appendiculatus; 100 ppm): 100%; chromatographic logP [1]: 4.41
4 | 3.55^[a] | Cc1cnc(C(F)F)c(C(=O)Nc2cccc3c2C(C)CC3(C)C)c1 (centres unmarked) [Example 21] | 72% | 88% | 
5 |  | CON=C1c2cccc(NC(=O)c3cccnc3C(F)F)c2CC1(C)C (mixture of isomers) [Example 34] | 93% |  | Eff. % (Septoria tritici): 100%; Eff. % (Sphaerotheca fuliginea; 500 ppm): 100%
6 | 4.39^[a] | CCC1(CC)Cc2c(NC(=O)c3cc(C)cnc3C(F)F)cccc2C1C (centres unmarked) [Example 61] | 78% |  | 
7 | 2.54^[a] | CCON=C1CCc2c(NC(=O)c3cccnc3C(F)F)cccc21 [Example 8] | 78% |  | 
8 | 4.77^[a] | CC(C)C1Cc2c(NC(=O)c3ccc(Cl)nc3C(F)F)cccc2C1(C)C (racemic) [Example 45] | 89% | 88% | 
9 | 2.99^[a] | CCON=C1CC(C)c2c(NC(=O)c3cc(C)cnc3C(F)F)cccc21 (racemic) [Example 50] | 94% | 100% | 
10 | 3.06^[a] | CC1(C)Cc2cccc(NC(=O)c3cccnc3C(F)F)c2C1 [Example 49] | 100% | 100% | Eff. % (Alternaria brassicae): 89%; Eff. % (Septoria tritici): 86%; Eff. % (Sphaerotheca fuliginea; 500 ppm): 100%
11 | 3.00^[a] | CCCON=C1CCc2c(NC(=O)c3cccnc3C(F)F)cccc21 [Example 7] |  | 71% | Eff. % (Alternaria brassicae): 79%
12 | 2.01^[a] | CC1(C)OCc2c(NC(=O)c3cccnc3C(F)F)cccc21 [Example 17] | 100% | 100% | 
13 | 2.64^[a] | CCC1OC(C)(C)c2cccc(NC(=O)c3cc(C)cnc3C(F)F)c21 (racemic) [Example 73] |  |  | Eff. % (Puccinia recondita; dose 100 ppm): 78%
14 | 3.64^[a] | Cc1cnc(C(F)F)c(C(=O)Nc2ccc(F)c3c2C(C)CC3(C)C)c1 (centres unmarked) [Example 23] | 94% | 93% | Eff. % (Septoria tritici): 71%; Eff. % (Sphaerotheca fuliginea; 500 ppm): 94%
15 | 2.66^[a] | CC1OC(C)(C)c2cccc(NC(=O)c3c(C(F)F)ccnc3C(F)F)c21 (centres unmarked) [Example 40] | 81% | 100% | Eff. % (Septoria tritici): 71%
16 | 3.79^[a] | Cc1cnc(C(F)F)c(C(=O)Nc2cccc3c2C(C)C(C)C3(C)C)c1 (centres unmarked) [Example 35] | 93% |  | 
17 | 4.74^[a] | Cc1cnc(C(F)F)c(C(=S)Nc2cccc3c2CC(C(C)C)C3(C)C)c1 (centres unmarked) [Example 67] |  |  | Eff. % (Puccinia recondita; dose 100 ppm): 89%; Eff. % (Uromyces appendiculatus; 100 ppm): 100%

Row | logP^[a] [1] | SMILES | Eff. % (Puccinia recondita; dose 500 ppm) | Eff. % (Uromyces appendiculatus; 500 ppm) | other results
18 |  | Cc1cnc(C(F)F)c(C(=O)Nc2cccc3c2CC(C(C)C)C3(C)C)c1 (racemic) [Example 44] | 83% | 93% | 
19 | 4.04^[a] | CC1c2cccc(NC(=O)c3ccc(Cl)nc3C(F)F)c2CC1(C)C (centres unmarked) [Example 64] | 98% | 84% | Eff. % (Sphaerotheca fuliginea; 500 ppm): 94%
20 | 2.77^[a] | CC1OC(C)(C)c2cccc(NC(=O)c3ccc(Cl)nc3C(F)F)c21 (racemic) [Example 24] | 89% | 100% | 
21 | 3.09^[a] | CCC1OC(C)(C)c2cccc(NC(=O)c3ccc(Cl)nc3C(F)F)c21 (racemic) [Example 74] |  |  | Eff. % (Puccinia recondita; dose 100 ppm): 72%
22 | 3.65^[a] | Cc1cnc(C(F)F)c(C(=O)Nc2cccc3c2CC(C)(C)C3C)c1 (centres unmarked) [Example 63] | 83% |  | 
23 | 4.09^[a] | CC1CC(C)(C)c2c(F)ccc(NC(=O)c3ccc(Cl)nc3C(F)F)c21 (centres unmarked) [Example 19] | 100% | 79% | 
24 | 2.89^[a] | CC1OC(C)(C)c2c(Br)ccc(NC(=O)c3cccnc3C(F)F)c21 (centres unmarked) [Example 15] | 86% | 81% | Eff. % (Septoria tritici): 83%
25 | 2.32^[a] | CON=C1CC(C)c2c(NC(=O)c3cccnc3C(F)F)cccc21 (racemic) [Example 30] | 86% | 98% | Eff. % (Septoria tritici): 88%
26 | 5.11^[a] | CC(C)C1Cc2c(NC(=S)c3ccc(Cl)nc3C(F)F)cccc2C1(C)C (centres unmarked) [Example 66] |  |  | Eff. % (Puccinia recondita; dose 100 ppm): 98%; Eff. % (Uromyces appendiculatus; 100 ppm): 85%
27 | 3.94^[a] | CC(C)CC1CCc2c(NC(=O)c3cccnc3C(F)F)cccc21 (racemic) [Example 41] | 98% | 100% | 
28 | 4.36^[a] | CCC1(C)CC(C)c2c(NC(=O)c3ccc(Cl)nc3C(F)F)cccc21 (mixture of isomers) [Example 83] |  |  | Eff. % (Puccinia recondita; dose 100 ppm): 83%; Eff. % (Uromyces appendiculatus; 100 ppm): 72%
29 | 3.76^[a] | CC1(C)Cc2cccc(NC(=O)c3ccc(Cl)nc3C(F)F)c2C1 [Example 47] | 72% |  | Eff. % (Septoria tritici): 71%
30 | 4.06^[a] | CC1CC(C)(C)c2cccc(NC(=O)c3cc(Cl)cnc3C(F)F)c21 (racemic) [Example 55] | 72% |  | 
31 | 3.99^[a] | CC1CC(C)(C)c2cccc(NC(=O)c3ccc(Cl)nc3C(F)F)c21 (racemic) [Example 18] | 89% |  | 
32 | 3.99^[a] | CCC1(CC)c2cccc(NC(=O)c3cccnc3C(F)F)c2CC1C (centres unmarked) [Example 91] |  |  | Eff. % (Puccinia recondita; dose 100 ppm): 94%; Eff. % (Sphaerotheca fuliginea; 100 ppm): 98%; Eff. % (Uromyces appendiculatus; 100 ppm): 100%
33 | 3.68^[a] | Cc1cnc(C(F)F)c(C(=S)Nc2cccc3c2C(C)CC32CC2)c1 (racemic) [Example 68] |  |  | Eff. % (Puccinia recondita; dose 100 ppm): 100%
34 | 3.73^[a] | CC1CC2(CC2)c2cccc(NC(=O)c3ccc(Cl)nc3C(F)F)c21 (racemic) [Example 58] | 81% | 95% | 

Row | SMILES | logP^[a] [1] | Eff. % (Puccinia recondita; dose 500 ppm) | Eff. % (Uromyces appendiculatus; 500 ppm) | other results
35 | CCCCON=C1CCc2c(NC(=O)c3cccnc3C(F)F)cccc21 [Example 6] | 3.44^[a] |  |  | Eff. % (Alternaria brassicae): 71%
